Assay results from patent US8822517B2, “Arylosulfonamides for the treatment of CNS diseases” (Adamed SP. Z O.O., priority 2010, dated 2014).

Columns and labels:
[1] = biological target: T1, serotonine transporter (SERT) receptor (Homo sapiens, UniProt P31645); assay: Binding assay SERT (h), [3H]imipramine, CHO cells; settings: for inhibition at 1 µM: read-out: SERT [%]
T1 construct: expressed in transfected cells; host or cells: CHO cells
Method in brief: (§1)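 At 1×10^−6 M, compounds were assessed for their effect on specific radioligand binding, computed as total less nonspecific binding (excess unlabelled ligand present).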

muscarinic M3 receptor = biological target: T2, muscarinic M3 receptor (Homo sapiens, UniProt P20309); assay: Binding assay M3 (h), [3H]4-DAMP, CHO cells; settings: read-out: M3 [%]
T2 construct: expressed in transfected cells; host or cells: CHO cells
Experimental: (§2) The specific ligand binding to the receptors is defined as the difference between the total binding and the nonspecific binding determined in the presence of an excess of so unlabelled ligand.
(§3) The specific Ligand binding to the receptor is defined as the difference between total and non-specific binding determined in the presence of an excess of unlabelled ligand. The compounds were tested at a concentration of 1×10^−6 M, and scintillation counting was the method of detection of ligand binding.

[2] = biological target: T3, serotoninergic receptor 5-HT2C (Homo sapiens, UniProt P28335); assay: Binding assay 5-HT2C (h), [3H]mesulergine, HEK-293 cells; settings: read-out: 5-HT2C [%]
T3 construct: expressed in transfected cells; host or cells: HEK-293 cells
T3 sequence (P28335 33-458): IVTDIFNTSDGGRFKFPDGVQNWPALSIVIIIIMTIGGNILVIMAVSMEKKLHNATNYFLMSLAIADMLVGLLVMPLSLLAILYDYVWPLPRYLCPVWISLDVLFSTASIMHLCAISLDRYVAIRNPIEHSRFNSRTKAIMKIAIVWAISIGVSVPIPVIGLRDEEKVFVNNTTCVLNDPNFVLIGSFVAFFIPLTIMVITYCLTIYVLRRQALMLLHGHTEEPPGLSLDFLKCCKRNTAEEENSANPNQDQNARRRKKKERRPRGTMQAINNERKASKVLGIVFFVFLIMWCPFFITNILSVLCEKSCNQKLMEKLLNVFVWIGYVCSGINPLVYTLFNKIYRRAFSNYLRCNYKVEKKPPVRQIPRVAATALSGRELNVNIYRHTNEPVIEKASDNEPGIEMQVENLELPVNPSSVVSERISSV
Experimental: as §2, §3

dopaminergic D3 receptor = dopaminergic D3 receptor (Homo sapiens, UniProt P35462); assay: Binding assay D3 (h), [3H]methyl-spiperone, CHO cells; parameters: expressed in transfected cells; host or cells: CHO cells; settings: for inhibition at 1 µM: read-out: D3 [%]
Method in brief: as §1

[3] = biological target: serotoninergic 5-HT6 receptor (Homo sapiens, UniProt P50406); assay: Binding assay 5-HT6 (h), [3H]LSD, CHO cells; parameters: expressed in transfected cells; host or cells: CHO cells; settings: for inhibition at 1 µM: read-out: 5-HT6
Method in brief: as §1

[4] = biological target: serotoninergic 5-HT7 receptor (Homo sapiens, UniProt P34969); assay: Binding assay 5-HT7 (h), [3H]LSD, CHO cells; parameters: expressed in transfected cells; host or cells: CHO cells; settings: for inhibition at 1 µM: read-out: 5-HT7
Method in brief: as §1

adrenergic α2C receptor = biological target: T4, adrenergic α2C receptor (Homo sapiens, UniProt P18825); assay: Binding assay α2C (h), [3H]RX 821002, CHO cells; parameters: expressed in transfected cells; host or cells: CHO cells; settings: read-out: α2C [%]
T4 sequence (P18825 1-462): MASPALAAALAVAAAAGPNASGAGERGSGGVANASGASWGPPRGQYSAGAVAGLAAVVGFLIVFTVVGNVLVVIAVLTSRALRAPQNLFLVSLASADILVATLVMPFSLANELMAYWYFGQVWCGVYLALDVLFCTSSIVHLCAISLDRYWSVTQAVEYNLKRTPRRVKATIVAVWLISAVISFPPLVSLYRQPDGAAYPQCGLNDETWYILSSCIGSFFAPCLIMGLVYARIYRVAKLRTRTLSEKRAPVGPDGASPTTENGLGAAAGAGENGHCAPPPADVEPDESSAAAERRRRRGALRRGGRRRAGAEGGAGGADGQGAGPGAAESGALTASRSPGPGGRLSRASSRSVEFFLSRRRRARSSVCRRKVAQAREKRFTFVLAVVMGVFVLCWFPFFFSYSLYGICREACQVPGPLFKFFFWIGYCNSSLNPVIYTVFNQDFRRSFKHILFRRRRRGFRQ
Experimental: as §2, §3

dopaminergic D2 receptor = dopaminergic D2 receptor (Homo sapiens, UniProt P14416); assay: Binding assay D2S (h), [3H]methyl-spiperone, HEK-293 cells; parameters: expressed in transfected cells; host or cells: HEK-293 cells; settings: for inhibition at 1 µM: read-out: D2 [%]
Method in brief: as §1

[5] = biological target: T5, serotoninergic 5-HT1A receptor (Homo sapiens, UniProt P08908); assay: Binding assay 5-HT1A (h), [3H]8-OH-DPAT, HEK-293 cells; parameters: expressed in transfected cells; host or cells: HEK-293 cells; settings: for inhibition at 1 µM: read-out: 5-HT1A
T5 sequence (P08908 1-422): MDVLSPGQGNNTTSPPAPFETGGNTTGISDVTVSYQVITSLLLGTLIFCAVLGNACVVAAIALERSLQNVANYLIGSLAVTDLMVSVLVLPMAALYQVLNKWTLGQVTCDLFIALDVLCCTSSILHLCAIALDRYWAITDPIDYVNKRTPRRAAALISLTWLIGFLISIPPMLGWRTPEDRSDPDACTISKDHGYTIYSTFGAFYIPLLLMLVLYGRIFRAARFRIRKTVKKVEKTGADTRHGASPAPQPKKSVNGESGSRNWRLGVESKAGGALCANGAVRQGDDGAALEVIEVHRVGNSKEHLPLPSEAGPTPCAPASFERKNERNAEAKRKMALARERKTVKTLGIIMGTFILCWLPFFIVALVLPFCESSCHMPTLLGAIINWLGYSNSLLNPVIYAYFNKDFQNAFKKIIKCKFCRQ
Method in brief: as §1

[6] = biological target: serotoninergic 5-HT2A receptor (Homo sapiens, UniProt P28223); assay: Binding assay 5-HT2A (h), [3H]ketanserin, HEK-293 cells; parameters: expressed in transfected cells; host or cells: HEK-293 cells; settings: for inhibition at 1 µM: read-out: 5-HT2A
Method in brief: as §1

[7] = biological target: histaminergic H1 receptor (Homo sapiens, UniProt P35367); assay: Binding assay H1 (h), [3H]pyrilamine, HEK-293 cells; parameters: expressed in transfected cells; host or cells: HEK-293 cells; settings: read-out: H1 [%]
Experimental: as §2, §3

adrenergic α1 receptor = assay: Binding assay α1 (non-selective), [3H]prazosin, rat cerebral cortex; settings: percent inhibition of control specific binding; compounds tested at 1×10^−6 M
Method in brief: as §1

[8] = percent inhibition of control specific binding, compounds tested at 1×10^−6 M

T1 sequence (P31645 whole entry): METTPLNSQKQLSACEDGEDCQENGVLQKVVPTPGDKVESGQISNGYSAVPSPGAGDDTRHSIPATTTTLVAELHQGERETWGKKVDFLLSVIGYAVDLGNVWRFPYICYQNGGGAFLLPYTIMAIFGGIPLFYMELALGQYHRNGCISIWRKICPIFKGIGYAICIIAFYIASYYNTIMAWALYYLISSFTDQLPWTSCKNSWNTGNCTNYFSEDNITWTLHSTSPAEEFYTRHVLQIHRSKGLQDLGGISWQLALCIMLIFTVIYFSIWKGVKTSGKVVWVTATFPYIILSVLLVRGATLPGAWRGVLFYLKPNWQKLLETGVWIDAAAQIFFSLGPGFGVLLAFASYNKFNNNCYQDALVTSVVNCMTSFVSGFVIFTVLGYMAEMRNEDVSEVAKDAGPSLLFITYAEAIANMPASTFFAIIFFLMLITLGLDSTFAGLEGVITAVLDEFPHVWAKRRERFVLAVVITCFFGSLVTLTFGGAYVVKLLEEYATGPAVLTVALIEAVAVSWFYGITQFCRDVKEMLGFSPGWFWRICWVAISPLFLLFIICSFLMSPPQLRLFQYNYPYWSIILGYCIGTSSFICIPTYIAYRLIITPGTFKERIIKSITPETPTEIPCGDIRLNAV
Sequence of dopaminergic D2 receptor (P14416 1-414 isoform P14416-2): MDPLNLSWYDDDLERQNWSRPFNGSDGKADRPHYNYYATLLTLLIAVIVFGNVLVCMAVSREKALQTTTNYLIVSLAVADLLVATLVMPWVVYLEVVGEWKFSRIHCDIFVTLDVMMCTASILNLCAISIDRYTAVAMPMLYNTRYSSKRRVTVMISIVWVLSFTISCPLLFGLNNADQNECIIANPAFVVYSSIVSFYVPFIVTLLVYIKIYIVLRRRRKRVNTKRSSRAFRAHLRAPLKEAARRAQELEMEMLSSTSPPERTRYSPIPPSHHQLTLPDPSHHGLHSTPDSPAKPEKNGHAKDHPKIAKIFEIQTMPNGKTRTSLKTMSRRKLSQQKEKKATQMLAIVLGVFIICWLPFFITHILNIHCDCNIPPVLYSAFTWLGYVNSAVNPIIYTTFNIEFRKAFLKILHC
Sequence of dopaminergic D3 receptor (P35462 whole entry): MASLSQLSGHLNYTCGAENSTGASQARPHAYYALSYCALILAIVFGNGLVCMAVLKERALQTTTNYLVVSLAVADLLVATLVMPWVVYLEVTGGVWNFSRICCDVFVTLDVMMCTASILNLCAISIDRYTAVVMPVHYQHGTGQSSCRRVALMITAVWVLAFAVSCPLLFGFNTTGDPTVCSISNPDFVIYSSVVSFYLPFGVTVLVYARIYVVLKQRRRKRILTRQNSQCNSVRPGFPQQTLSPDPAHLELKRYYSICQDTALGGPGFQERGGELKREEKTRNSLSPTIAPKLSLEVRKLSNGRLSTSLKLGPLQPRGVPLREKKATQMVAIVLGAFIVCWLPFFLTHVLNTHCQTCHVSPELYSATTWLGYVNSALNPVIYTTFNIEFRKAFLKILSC
Sequence of serotoninergic 5-HT2A receptor (P28223 whole entry): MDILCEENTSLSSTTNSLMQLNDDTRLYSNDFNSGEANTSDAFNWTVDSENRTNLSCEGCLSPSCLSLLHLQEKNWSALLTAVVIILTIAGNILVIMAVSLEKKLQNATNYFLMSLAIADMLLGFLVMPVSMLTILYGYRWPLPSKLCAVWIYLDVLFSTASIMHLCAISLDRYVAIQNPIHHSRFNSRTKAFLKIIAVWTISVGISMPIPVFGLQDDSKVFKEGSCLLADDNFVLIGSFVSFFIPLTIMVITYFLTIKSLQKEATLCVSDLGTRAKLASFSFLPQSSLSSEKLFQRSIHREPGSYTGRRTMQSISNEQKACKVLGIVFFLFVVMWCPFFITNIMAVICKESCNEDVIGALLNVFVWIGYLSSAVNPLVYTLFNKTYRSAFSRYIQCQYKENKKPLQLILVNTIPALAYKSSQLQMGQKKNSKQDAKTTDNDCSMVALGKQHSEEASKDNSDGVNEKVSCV
Sequence of serotoninergic 5-HT6 receptor (P50406 whole entry): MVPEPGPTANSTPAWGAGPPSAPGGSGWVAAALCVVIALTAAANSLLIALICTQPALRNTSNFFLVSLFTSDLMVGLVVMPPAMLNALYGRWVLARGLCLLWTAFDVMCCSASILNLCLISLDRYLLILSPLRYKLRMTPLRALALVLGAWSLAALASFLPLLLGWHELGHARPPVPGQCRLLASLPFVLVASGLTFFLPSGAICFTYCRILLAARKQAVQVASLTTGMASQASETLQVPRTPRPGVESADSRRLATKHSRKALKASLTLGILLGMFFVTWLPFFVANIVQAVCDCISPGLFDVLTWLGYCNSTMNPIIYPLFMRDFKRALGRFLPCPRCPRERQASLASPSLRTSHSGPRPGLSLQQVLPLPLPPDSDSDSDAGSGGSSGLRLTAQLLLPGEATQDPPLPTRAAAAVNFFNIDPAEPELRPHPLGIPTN
Sequence of serotoninergic 5-HT7 receptor (P34969 whole entry): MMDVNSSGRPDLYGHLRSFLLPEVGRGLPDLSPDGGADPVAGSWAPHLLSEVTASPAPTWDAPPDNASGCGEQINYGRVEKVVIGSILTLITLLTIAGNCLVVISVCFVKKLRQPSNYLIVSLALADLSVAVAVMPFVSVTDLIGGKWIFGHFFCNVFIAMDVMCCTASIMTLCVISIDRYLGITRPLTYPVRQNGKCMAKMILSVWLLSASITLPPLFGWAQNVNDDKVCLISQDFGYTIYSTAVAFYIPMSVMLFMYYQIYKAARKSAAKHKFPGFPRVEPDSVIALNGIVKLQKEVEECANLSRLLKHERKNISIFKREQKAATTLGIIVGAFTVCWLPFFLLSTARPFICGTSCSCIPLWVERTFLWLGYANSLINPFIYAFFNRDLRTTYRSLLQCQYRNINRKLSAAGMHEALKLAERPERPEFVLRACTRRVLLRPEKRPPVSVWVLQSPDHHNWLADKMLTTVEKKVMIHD
T2 sequence (P20309 whole entry): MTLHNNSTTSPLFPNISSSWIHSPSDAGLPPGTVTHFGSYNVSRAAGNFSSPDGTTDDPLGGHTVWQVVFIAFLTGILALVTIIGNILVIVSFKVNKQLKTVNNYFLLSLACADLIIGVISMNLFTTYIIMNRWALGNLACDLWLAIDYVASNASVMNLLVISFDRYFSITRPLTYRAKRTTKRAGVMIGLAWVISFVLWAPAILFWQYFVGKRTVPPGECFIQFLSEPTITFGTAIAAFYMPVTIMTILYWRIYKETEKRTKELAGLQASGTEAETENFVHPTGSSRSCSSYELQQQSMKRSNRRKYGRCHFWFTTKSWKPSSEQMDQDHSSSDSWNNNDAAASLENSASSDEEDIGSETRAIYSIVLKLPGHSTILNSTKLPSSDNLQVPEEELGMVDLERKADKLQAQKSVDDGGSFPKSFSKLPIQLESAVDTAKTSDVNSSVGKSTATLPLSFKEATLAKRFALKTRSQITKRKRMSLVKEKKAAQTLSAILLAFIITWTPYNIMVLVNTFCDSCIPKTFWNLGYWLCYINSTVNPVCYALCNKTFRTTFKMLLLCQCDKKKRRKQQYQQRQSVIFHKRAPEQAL
Sequence of histaminergic H1 receptor (P35367 whole entry): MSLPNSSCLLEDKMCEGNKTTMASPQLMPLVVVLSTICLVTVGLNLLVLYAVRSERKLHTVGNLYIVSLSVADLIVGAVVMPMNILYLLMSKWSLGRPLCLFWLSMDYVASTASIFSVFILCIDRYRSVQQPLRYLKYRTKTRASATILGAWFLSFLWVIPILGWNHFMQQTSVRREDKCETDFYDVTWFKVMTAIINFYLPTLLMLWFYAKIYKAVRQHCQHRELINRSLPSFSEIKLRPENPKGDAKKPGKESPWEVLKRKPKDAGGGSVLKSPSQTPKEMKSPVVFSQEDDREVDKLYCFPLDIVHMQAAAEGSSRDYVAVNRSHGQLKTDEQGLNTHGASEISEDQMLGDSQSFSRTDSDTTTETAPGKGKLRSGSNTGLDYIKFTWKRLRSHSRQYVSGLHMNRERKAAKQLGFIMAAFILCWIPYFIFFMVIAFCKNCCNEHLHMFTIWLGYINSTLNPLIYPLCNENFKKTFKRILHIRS

Row | Compound | inhibition at 1 µM [1] [%] | inhibition at 1 µM (muscarinic M3 receptor) [%] | inhibition at 1 µM [2] [%] | inhibition at 1 µM (dopaminergic D3 receptor) [%] | inhibition at 1 µM [3] [%] | inhibition at 1 µM [4] [%] | inhibition at 1 µM (adrenergic α2C receptor) [%] | inhibition at 1 µM (dopaminergic D2 receptor) [%] | inhibition at 1 µM [5] [%] | inhibition at 1 µM [6] [%] | inhibition at 1 µM [7] [%] | α1 [%] (adrenergic α1 receptor) | SERT [%] [1, 8] [%] | D3 [%] (dopaminergic D3 receptor; [8]) | 5-HT6 [3, 8] [%] | 5-HT7 [4, 8] [%] | D2 [%] (dopaminergic D2 receptor; [8]) | 5-HT1A [5, 8] [%] | 5-HT2A [6, 8] [%]
1 | O=S(=O)(NCCCN1CCC(c2noc3cc(F)ccc23)CC1)c1cc2ccc(Cl)cc2s1 [Compound 347, 6-Chloro-N-[3-[4-(6-fluoro-1,2-benzoxazol-3-yl)piperidin-1-yl]propyl]benzothiophene-2-sulphonamide] | 33 | 12 | 99 | 103 | 99 | 100 | 110 | 103 | 92 | 101 | 98 |  |  |  |  |  |  |  | 
2 | O=C1COc2c(cccc2N2CCN(CCCCNS(=O)(=O)c3ccc4ccccc4c3)CC2)N1 [Compound 427, N-[4-[4-(3-oxo-4H-1,4-benzoxazin-8-yl)piperazin-1-yl]butyl]naphthalene-2-sulphonamide] | 13 |  |  | 104 | 36 | 98 |  | 83 | 84 | 49 |  | 86 |  |  |  |  |  |  | 
3 | O=C1COc2c(cccc2N2CCN(CCCCNS(=O)(=O)c3ccc(F)cc3)CC2)N1 [Compound 428, 4-Fluoro-N-[4-[4-(3-oxo-4H-1,4-benzoxazin-8-yl)piperazin-1-yl]butyl]benzenesulphonamide] | 23 |  |  | 104 | 33 | 78 |  | 78 | 90 | 30 |  | 72 |  |  |  |  |  |  | 
4 | O=C1COc2c(cccc2N2CCN(CCCCNS(=O)(=O)c3ccc(C(F)(F)F)cc3)CC2)N1 [Compound 429, N-[4-[4-(3-oxo-4H-1,4-benzoxazin-8-yl)piperazin-1-yl]butyl]-4-(trifluoromethyl)benzenesulphonamide] | 22 |  |  | 104 | -57 | 83 |  | 61 | 88 | 35 |  | 78 |  |  |  |  |  |  | 
5 | O=C1COc2c(cccc2N2CCN(CCCCNS(=O)(=O)c3cccc(C(F)(F)F)c3)CC2)N1 [Compound 430, N-[4-[4-(3-oxo-4H-1,4-benzoxazin-8-yl)piperazin-1-yl]butyl]-3-(trifluoromethyl)benzenesulphonamide] | 19 |  |  | 101 | 94 | 84 |  | 69 | 86 | 87 |  | 46 |  |  |  |  |  |  | 
6 | O=C1COc2c(cccc2N2CCN(CCCCNS(=O)(=O)c3ccc(Cl)s3)CC2)N1 [Compound 431, 5-Chloro-N-[4-[4-(3-oxo-4H-1,4-benzoxazin-8-yl)piperazin-1-yl]butyl]thiophene-2-sulphonamide] | 12 |  |  | 103 | 35 | 67 |  | 68 | 101 | 31 |  | 88 |  |  |  |  |  |  | 
7 | O=S(=O)(NCCCN1CC=C(c2c[nH]c3ccc(F)cc23)CC1)c1cccc(O)c1 [Compound 437, N-[3-[4-(5-Fluoro-1H-indol-3-yl)-3,6-dihydro-2H-pyridin-1-yl]propyl]-3-hydroxybenzenesulphonamide] | 105 |  |  | 100 | 47 | 83 |  | 57 | 24 | 74 |  | 52 |  |  |  |  |  |  | 
8 | Cc1[nH]c2ccc(Cl)cc2c1C1=CCN(CCCNS(=O)(=O)c2cccc3ccccc23)CC1 [Compound 441, N-[3-[4-(5-Chloro-2-methyl-1H-indol-3-yl)-3,6-dihydro-2H-pyridin-1-yl]propyl]-naphthalene-1-sulphonamide] | 1 |  |  | 72 | 84 | 82 |  | 77 | 54 | 57 |  | 16 |  |  |  |  |  |  | 
9 | Cc1[nH]c2ccc(Cl)cc2c1C1=CCN(CCCNS(=O)(=O)c2ccc(F)cc2)CC1 [Compound 443, N-[3-[4-(5-Chloro-2-methyl-1H-indol-3-yl)-3,6-dihydro-2H-pyridin-1-yl]propyl]-4-fluorobenzenesulphonamide] | -9 |  |  | 71 | 92 | 54 |  | 22 | 59 | 67 |  | 41 |  |  |  |  |  |  | 
10 | Cc1[nH]c2ccc(Cl)cc2c1C1=CCN(CCNS(=O)(=O)c2cccc3ccccc23)CC1 [Compound 447, N-[2-[4-(5-Chloro-2-methyl-1H-indol-3-yl)-3,6-dihydro-2H-pyridin-1-yl]ethyl]-naphthalene-1-sulphonamide] | 23 |  |  | -17 | 106 | 34 |  | 3 | 42 | 19 |  | 1 |  |  |  |  |  |  | 
11 | Cc1[nH]c2ccc(Cl)cc2c1C1=CCN(CCNS(=O)(=O)c2ccc(F)cc2)CC1 [Compound 449, N-[2-[4-(5-Chloro-2-methyl-1H-indol-3-yl)-3,6-dihydro-2H-pyridin-1-yl]ethyl]-4-fluorobenzenesulphonamide] | 21 |  |  | 34 | 93 | 81 |  | 31 | 57 | 76 |  | 12 |  |  |  |  |  |  | 
12 | N-[4-[4-(1H-Indol-4-yl)piperazin-1-yl]butyl]-1,3-benzodioxole-5-sulphonamide [Compound 365] |  |  |  |  |  |  |  |  |  |  |  | 100 | 25 | 100 | 67 | 95 | 99 | 90 | 55
